Measurements reported in the NIST ThermoML archive (doi:10.1021/je4009238).

What was measured:
[1] = xn = mol fraction of the nth substance listed; conditions: 101 kPa, Liquid
[2] = refractive index (Na D-line) (dimensionless); xn = mol fraction of the nth substance listed; conditions: 101 kPa, Liquid
[3] = 101 kPa, Liquid
[4] = refractive index (Na D-line) (dimensionless); conditions: 101.33 kPa, Liquid

CN(C)C=O [dimethylformamide] + CCn1cc[n+](C)c1.[Cl-]
x2 = 0
Conditions	mass density, [1] [kg/m3]	refractive index, [2]	viscosity, [1] [mPa·s]
288.15 K	953.79	1.43304	0.936
298.15 K	944.26	1.42858	0.825
308.15 K	934.69	1.42381	0.736
318.15 K	925.16	1.41909	0.665

CN(C)C=O [dimethylformamide] + CCCCn1cc[n+](C)c1.[Cl-]
x2 = 0
Conditions	mass density, [1] [kg/m3]	refractive index, [2]	viscosity, [1] [mPa·s]
288.15 K	953.79	1.43304	0.936
298.15 K	944.26	1.42858	0.825
308.15 K	934.69	1.42381	0.736
318.15 K	925.16	1.41909	0.665

CN(C)C=O [dimethylformamide] + CCCCCCn1cc[n+](C)c1.[Cl-]
x2 = 0
Conditions	mass density, [1] [kg/m3]	refractive index, [2]	viscosity, [1] [mPa·s]
288.15 K	953.79	1.43304	0.936
298.15 K	944.26	1.42858	0.825
308.15 K	934.69	1.42381	0.736
318.15 K	925.16	1.41909	0.665

CCCCCCCC[n+]1ccn(C)c1.[Cl-] [1-methyl-3-octylimidazolium chloride] + CN(C)C=O
Conditions	mass density, [1] [kg/m3]	refractive index, [2]	viscosity, [1] [mPa·s]
288.15 K, x1 = 0.0306	962.61	1.4392	1.617
288.15 K, x1 = 0.0647	970.04	1.44535	2.007
288.15 K, x1 = 0.1021	976.96	1.4504	2.763
288.15 K, x1 = 0.1457	983.52	1.45598	4.132
288.15 K, x1 = 0.1939	989.54	1.46074	5.958
288.15 K, x1 = 0.2496	995.13	1.46531	8.425
288.15 K, x1 = 0.3143	1000.4	1.46967	13.28
288.15 K, x1 = 0.39	1005.26	1.47407	20.46
288.15 K, x1 = 0.4809	1009.79	1.47791	34.23
288.15 K, x1 = 0.5908	1013.76	1.48169	60.63
288.15 K, x1 = 0.7259	1017.15	1.48534	122.33
288.15 K, x1 = 1	1022.06	1.49008	–
298.15 K, x1 = 0.0306	953.41	1.43459	1.348
298.15 K, x1 = 0.0647	961.21	1.44113	1.629
298.15 K, x1 = 0.1021	968.34	1.44613	2.262
298.15 K, x1 = 0.1457	975.24	1.45203	3.234
298.15 K, x1 = 0.1939	981.46	1.45641	4.582
298.15 K, x1 = 0.2496	987.32	1.46173	6.215
298.15 K, x1 = 0.3143	992.89	1.46588	9.498
298.15 K, x1 = 0.39	997.98	1.47066	14.03
298.15 K, x1 = 0.4809	1002.82	1.47429	22.18
298.15 K, x1 = 0.5908	1006.97	1.47835	37.33
298.15 K, x1 = 0.7259	1010.6	1.48212	69.31
298.15 K, x1 = 1	1015.97	1.48709	–
308.15 K, x1 = 0.0306	944.19	1.43007	1.172
308.15 K, x1 = 0.0647	952.27	1.4361	1.448
308.15 K, x1 = 0.1021	959.68	1.44189	1.909
308.15 K, x1 = 0.1457	966.87	1.44766	2.615
308.15 K, x1 = 0.1939	973.37	1.45241	3.636
308.15 K, x1 = 0.2496	979.5	1.45731	4.753
308.15 K, x1 = 0.3143	985.36	1.46212	7.07
308.15 K, x1 = 0.39	990.69	1.46672	10.12
308.15 K, x1 = 0.4809	995.8	1.47089	15.15
308.15 K, x1 = 0.5908	1000.19	1.47504	24.36
308.15 K, x1 = 0.7259	1004.44	1.47897	43.04
308.15 K, x1 = 1	1009.8	1.48413	155.03
318.15 K, x1 = 0.0306	934.98	1.42562	1.013
318.15 K, x1 = 0.0647	943.27	1.43143	1.289
318.15 K, x1 = 0.1021	951.06	1.438	1.661
318.15 K, x1 = 0.1457	958.48	1.44342	2.182
318.15 K, x1 = 0.1939	965.3	1.44849	2.97
318.15 K, x1 = 0.2496	971.71	1.45347	3.753
318.15 K, x1 = 0.3143	977.79	1.4586	5.427
318.15 K, x1 = 0.39	983.45	1.46306	7.536
318.15 K, x1 = 0.4809	988.76	1.46765	10.77
318.15 K, x1 = 0.5908	993.39	1.47179	16.68
318.15 K, x1 = 0.7259	997.95	1.47589	28.25
318.15 K, x1 = 1	1003.62	1.48122	65.95

CCCCCCn1cc[n+](C)c1.[Cl-] [1-hexyl-3-methylimidazolium chloride] + CN(C)C=O
Conditions	mass density, [1] [kg/m3]	refractive index, [2]	viscosity, [1] [mPa·s]
288.15 K, x1 = 0.0312	964.44	1.44088	1.271
288.15 K, x1 = 0.0646	973.48	1.44818	1.715
288.15 K, x1 = 0.102	982	1.45488	2.392
288.15 K, x1 = 0.1456	990.33	1.46175	4.166
288.15 K, x1 = 0.196	998.49	1.46836	6.28
288.15 K, x1 = 0.2502	1005.77	1.47473	10.77
288.15 K, x1 = 0.3144	1013.08	1.4808	17.98
288.15 K, x1 = 0.3893	1020.04	1.48693	32.59
288.15 K, x1 = 0.4796	1026.84	1.49278	65.31
288.15 K, x1 = 0.591	1033.55	1.49886	134.94
288.15 K, x1 = 0.7249	1039.53	1.50429	232.47
288.15 K, x1 = 1	1047.99	1.5125	–
298.15 K, x1 = 0.0312	955.32	1.43634	1.097
298.15 K, x1 = 0.0646	964.62	1.44359	1.451
298.15 K, x1 = 0.102	973.43	1.45059	2.064
298.15 K, x1 = 0.1456	982.06	1.45751	2.874
298.15 K, x1 = 0.196	990.57	1.46433	4.815
298.15 K, x1 = 0.2502	998.08	1.47086	7.927
298.15 K, x1 = 0.3144	1005.74	1.47702	12.52
298.15 K, x1 = 0.3893	1012.97	1.48213	21.49
298.15 K, x1 = 0.4796	1019.96	1.48933	40.25
298.15 K, x1 = 0.591	1026.93	1.49567	76.98
298.15 K, x1 = 0.7249	1033.24	1.50108	178.3
298.15 K, x1 = 1	1042.2	1.50953	–
308.15 K, x1 = 0.0312	946.13	1.43187	0.961
308.15 K, x1 = 0.0646	955.75	1.43909	1.249
308.15 K, x1 = 0.102	964.86	1.44632	1.733
308.15 K, x1 = 0.1456	973.81	1.4533	2.348
308.15 K, x1 = 0.196	982.59	1.46038	3.817
308.15 K, x1 = 0.2502	990.42	1.46695	6.056
308.15 K, x1 = 0.3144	998.35	1.47335	9.115
308.15 K, x1 = 0.3893	1005.87	1.47856	15.08
308.15 K, x1 = 0.4796	1013.14	1.48595	26.46
308.15 K, x1 = 0.591	1020.36	1.49237	47.62
308.15 K, x1 = 0.7249	1026.94	1.49797	75.17
308.15 K, x1 = 1	1036.43	1.50667	2044.2
318.15 K, x1 = 0.0312	936.91	1.42765	0.852
318.15 K, x1 = 0.0646	946.92	1.43468	1.091
318.15 K, x1 = 0.102	956.28	1.44219	1.489
318.15 K, x1 = 0.1456	965.63	1.44909	1.957
318.15 K, x1 = 0.196	974.62	1.45652	3.113
318.15 K, x1 = 0.2502	982.82	1.46293	4.77
318.15 K, x1 = 0.3144	990.96	1.46974	6.88
318.15 K, x1 = 0.3893	998.8	1.47497	10.95
318.15 K, x1 = 0.4796	1006.38	1.48264	18.37
318.15 K, x1 = 0.591	1013.87	1.48916	31.33
318.15 K, x1 = 0.7249	1020.7	1.49498	47.69
318.15 K, x1 = 1	1030.62	1.5039	884.2

CN(C)C=O [dimethylformamide] + CCCCCCCC[n+]1ccn(C)c1.[Cl-]
x2 = 0
Conditions	mass density, [1] [kg/m3]	refractive index, [2]	viscosity, [1] [mPa·s]
288.15 K	953.79	1.43304	0.936
298.15 K	944.26	1.42858	0.825
308.15 K	934.69	1.42381	0.736
318.15 K	925.16	1.41909	0.665

CCCCCCn1cc[n+](C)c1.[Cl-] [1-hexyl-3-methylimidazolium chloride]
Conditions	mass density, 288.15 K [kg/m3]	mass density, 298.15 K [kg/m3]	mass density, 308.15 K [kg/m3]	mass density, 318.15 K [kg/m3]	refractive index, 288.15 K	refractive index, 298.15 K	refractive index, 308.15 K	refractive index, 318.15 K	viscosity, 308.15 K [mPa·s]	viscosity, 318.15 K [mPa·s]
[3]	1047.99	1042.2	1036.43	1030.62	–	–	–	–	2044.2	884.2
[4]	–	–	–	–	1.5125	1.50953	1.50667	1.5039	–	–
